Source: US8846615B2, “MNTF peptides” (Genervon Biopharmaceuticals, LLC, priority 2008, dated 2014)
No end group written: not given here.

System: rat spinal motor neurons
Test: in vitro rat motor neuron cell survival assay
Type: cell-based
Conditions: for MN survival (% Ctrl): 10 μg/mL peptide, medium lacking NTFs, surviving motor neurons as percentage of those surviving with NTFs alone (control), mean ± SD of five samples; for trophic effect on motor neuron cell death (in words): 10 μg/ml, culture medium lacking the conventional NTFs
Experimental: FIG. 1. Illustrates a survival assay of exemplary MNTF peptides on motor neuron survival. Motor neurons were cultured from rat spinal cords and grown in culture for 3 days in the presence of BDNF, GDNF and CNTF. After 3 days, the cells were grown in the absence of the conventional trophic factors but with the indicated MNTF peptides at 10 microgram/ml. After 48 hours the number of live cells was determined. The graph indicates mean+/−SD of five samples (BDNF=Brain derived neurotrophic factor; GDNF=Glial derived neurotrophic factor; CNTF=Ciliary neurotrophic factor).
Purification and culture of motor neurons. Spinal motor neuron cultures were prepared from E14.5 Sprague-Dawley rats (Charles River Labs). Briefly, dissected spinal cords were digested in 0.025% trypsin (Gibco) for 8 min at 37° C. The tissue was transferred to a solution containing L-15 medium (Gibco) supplemented with 2% horse serum (Gibco), insulin (5 μg/ml); putrescine (1×10^-4 M), conalbumin (100 μg/ml), sodium selenite (3×10^-8 M), progesterone (2×10^-8 M), glucose (3.6 mg/ml), penicillin (100 IU/ml), streptomycin (100 μg/ml), DNAse (100 μg/ml) and bovine serum albumin (BSA; 0.4%). […] The layered suspension was centrifuged at 830×g for 15 min. […] The motor neurons medium consists of neurobasal medium (Gibco) supplemented with B27 supplement (Gibco), glutamate (25 μM), 2-mercaptoethanol (25 μM) and 2% horse serum. The motor neurons were plated onto laminin-coated coverslips at a density of 3000 cells/coverslip unless otherwise stated. A cocktail of neurotrophic factors (NTFs: 1 ng/ml BDNF, 100 pg/ml GDNF, 10 ng/ml CNTF) was added at the time of cell seeding. After 24 h in culture, motor neurons were treated by addition of the different analogs diluted in motor neurons medium lacking NTFs.
Survival assay. Spinal motor neurons were prepared from E14.5 rat embryos as described. Cells were cultured in the presence of NTFs for 24 h and viability (VI) was estimated by counting the number of calcein AM-positive cells. For viability studies, motor neurons were cultured in the absence of NTFs with the addition of the analogs or GM6. The percentage of viable motor neurons was calculated by counting the number of neurons.
Statistical analysis. The number of surviving motor neurons for each treatment was expressed as a percentage of the number of motor neurons surviving in the presence of NTFs alone (control). Five dishes were used for each condition. Differences between treatments were analyzed for their statistical significance by one-way ANOVA with post hoc Tukey's testing.

Substance	MN survival (% Ctrl)	trophic effect on motor neuron cell death (in words)	trophic effect on motor neuron cell death (in words) (listed as GM6)
SRYA [compound 3223, 4-mer MNTF peptide]	15.46 ± 1.82	–	–
FSR [compound 2307, 3-mer MNTF peptide, metabolite of the 6mer]	35.00 ± 5.28	–	–
SRY [compound 3221, 3-mer MNTF peptide]	9.08 ± 2.32	–	–
YAR [compound 2310, 3-mer MNTF peptide, metabolite of the 6mer]	12.26 ± 1.70	–	–
RYA [compound 3222, 3-mer MNTF peptide]	10.64 ± 1.72	–	–
FSRYA [compound 2309, 5-mer MNTF peptide, metabolite of the 6mer]	81.5 ± 4.50	–	–
SRYAR [compound 2312, 5-mer MNTF peptide, metabolite of the 6mer]	12.02 ± 2.31	–	–
FSRYAR [GM6(GMP014), synthesized 6 amino acid peptide analog of MNTF]	94.02 ± 3.53	demonstrated protection from neuronal cell loss	demonstrated an attenuation of motor neuron cell death
RYAR [compound 2311, 4-mer MNTF peptide, metabolite of the 6mer]	9.66 ± 2.50	–	–
FSRY [compound 2308, 4-mer MNTF peptide, metabolite of the 6mer]	66.38 ± 5.86	–	–
